Laboratory results reported in patent US20080045514A1 (Cytovia, Inc., priority 2006, published 2008).
Counter-ions that a name gives are not always drawn.

Key:
Type in all cases: cell-based
[1] = tested on: human breast cancer cell line T-47D; test: Caspase cascade activation (EC50), T-47D; details: Homo sapiens; T47D cells; caspase cascade activation; read-out: caspase potency (EC50) T47D
Description: (§1) Human breast cancer cell lines T-47D, human hepatocellular carcinoma cell line SNU398, human colon carcinoma cell line HCT116, human cancer cell line H1299, human Burkitt's lymphoma cell line Namalwa, human lymphoma cell line Raji, and human B cell lymphoblastoid cell line Ramos were grown according to media component mixtures designated by American Type Culture Collection+10% FCS (Invitrogen Corporation), in a 5% CO2-95% humidity incubator at 37° C. T-47D and H1299 cells were maintained at a cell density between 50 and 80% confluency at a cell density of 0.1 to 0.6×10^6 cells/mL. Cells were harvested at 600×g and resuspended at 0.65×10^6 cells/mL into appropriate media+10% FCS. An aliquot of 22.5 μL of cells was added to a well of a 384-well microtiter plate containing 2.5 μL of a 10% DMSO in RPMI-1640 media solution containing 0.16 to 100 μM of 3-(2-chlorophenyl)-6-(3,4-methylenedioxyphenyl)-7H-[1,2,4]triazolo[3,4-b][1,3,4]thiadiazine or other test compound (0.016 to 10 μM final). An aliquot of 22.5 μL of cells was added to a well of a 384-well microtiter plate containing 2.5 μL of a 10% DMSO in RPMI-1640 media solution without test compound as the control sample. The samples were mixed by agitation and then incubated at 37° C. for 48 h in a 5% CO2-95% humidity incubator. After incubation, the samples were removed from the incubator and 25 μL of a solution containing 14 μM of N—(Ac-DEVD)-N′-ethoxycarbonyl-R110 (SEQ ID No.:1) fluorogenic substrate (Cytovia, Inc.; WO99/18856), 20% sucrose (Sigma), 20 mM DTT (Sigma), 200 mM NaCl (Sigma), 40 mM Na PIPES buffer pH 7.2 (Sigma), and 500 μg/mL lysolecithin (Calbiochem) was added. The samples were mixed by agitation and incubated at room temperature. Using a fluorescent plate reader (Model SPECTRAfluor Plus, Tecan), an initial reading (T=0) was made approximately 1-2 min after addition of the substrate solution, employing excitation at 485 nm and emission at 530 nm, to determine the background fluorescence of the control sample. After the 3 h incubation, the samples were read for fluorescence as above (T=3 h). Calculation: The Relative Fluorescence Unit values (RFU) were used to calculate the sample readings as follows: RFU(T=3H)−Control RFU(T=0)=Net RFU(T=3h) The activity of caspase cascade activation was determined by the ratio of the net RFU value for 3-(2-chlorophenyl)-6-(3,4-methylenedioxyphenyl)-7H-[1,2,4]triazolo[3,4-b][1,3,4]thiadiazine (Example P) or other test compound to that of control samples. The EC50 (nM) was determined by a sigmoidal dose-response calculation (Prism 3.0, GraphPad Software Inc.).

[2] = tested on: human hepatocellular carcinoma cell line SNU398; test: Caspase cascade activation (EC50), SNU398; details: Homo sapiens, SNU-398; SNU398 cells; caspase cascade activation; read-out: caspase potency (EC50) SNU398
Description: as §1

[3] = tested on: human colon carcinoma cell line HCT116; test: Caspase cascade activation (EC50), HCT116; details: Homo sapiens, HCT-116; HCT116 cells; caspase cascade activation; read-out: caspase potency (EC50) HCT116
Description: as §1

[4] = tested on: human Burkitt's lymphoma cell line Namalwa; test: Caspase cascade activation (EC50), Namalwa; details: Homo sapiens, Burkitts lymphoma cell; Namalwa cells; caspase cascade activation; read-out: caspase potency (EC50) Namalwa
Description: as §1

[5] = tested on: human lymphoma cell line Raji; test: Caspase cascade activation (EC50), Raji; details: Homo sapiens, RAJI cells, read-out: caspase potency (EC50) RAJI
Description: as §1

[6] = tested on: human B cell lymphoblastoid cell line Ramos; test: Caspase cascade activation (EC50), Ramos; details: Homo sapiens, RAMOS cells, read-out: caspase potency (EC50) RAMOS
Description: as §1

Structure (SMILES): COc1ccc(C2=Nn3c(nnc3-c3cccc(OC(C)C)c3)SC2)cc1 [Example K2, 3-(3-Isopropyloxyphenyl)-6-(4-methoxyphenyl)-7H-[1,2,4]triazolo[3,4-b][1,3,4]thiadiazine]
- EC50 [1]: 5470 nM
- EC50 [2]: 5560 nM
- EC50 [3]: > 10000 nM
- EC50 [4]: 5530 nM
- EC50 [5]: 5470 nM
- EC50 [6]: 5840 nM

Structure (SMILES): Cc1ccc(C2=Nn3c(nnc3-c3ccccc3Cl)SC2)cc1 [Example 11, 3-(2-Chlorophenyl)-6-(4-methylphenyl)-7H-[1,2,4]triazolo[3,4-b][1,3,4]thiadiazine hydrochloride]
- EC50 [4]: 71 nM
- EC50 [5]: 157 nM
- EC50 [6]: 72 nM

Structure (SMILES): c1cc2c(cc1C1=Nn3c(nnc3C3CCCCC3)SC1)OCO2 [Example M2, 3-Cyclohexyl-6-(3,4-methylenedioxyphenyl)-7H-[1,2,4]triazolo[3,4-b][1,3,4]thiadiazine]
- EC50 [1]: 4330 nM
- EC50 [2]: 4770 nM
- EC50 [3]: > 10000 nM
- EC50 [4]: 5240 nM
- EC50 [5]: 5190 nM
- EC50 [6]: 5150 nM

Structure (SMILES): Cc1ccc(-c2nnc3n2N=C(c2ccc4c(c2)OCO4)CS3)cc1 [C, 3-(4-Methylphenyl)-6-(3,4-methylenedioxyphenyl)-7H-[1,2,4]triazolo[3,4-b][1,3,4]thiadiazine]
- EC50 [1]: 683 nM
- EC50 [2]: 599 nM
- EC50 [3]: > 10000 nM
- EC50 [4]: 580 nM
- EC50 [5]: 568 nM
- EC50 [6]: 711 nM

Structure (SMILES): COc1ccc(-c2nnc3n2N=C(c2ccc4c(c2)OCO4)CS3)cc1OC [Example O1, 3-(3,4-Dimethoxyphenyl)-6-(3,4-methylenedioxyphenyl)-7H-[1,2,4]triazolo[3,4-b][1,3,4]thiadiazine]
- EC50 [1]: 542 nM
- EC50 [2]: 501 nM
- EC50 [3]: > 10000 nM
- EC50 [5]: 540 nM
- EC50 [6]: 514 nM

Structure (SMILES): COc1ccc(C2=Nn3c(nnc3-c3cc(Cl)c(OC)c(OC)c3)SC2)cc1 [Example 5, 3-(3-Chloro-4,5-dimethoxyphenyl)-6-(4-methoxyphenyl)-7H-[1,2,4]triazolo[3,4-b][1,3,4]thiadiazine]
- EC50 [4]: 71 nM
- EC50 [5]: 133 nM
- EC50 [6]: 78 nM

Structure (SMILES): COc1ccc(-c2nnc3n2N=C(c2ccc([N+](=O)[O-])cc2)CS3)cc1OC [Example 28, 3-(3,4-Dimethoxyphenyl)-6-(4-nitrophenyl)-7H-[1,2,4]triazolo[3,4-b][1,3,4]thiadiazine]
- EC50 [1]: > 10000 nM
- EC50 [2]: > 10000 nM
- EC50 [3]: > 10000 nM
- EC50 [4]: > 10000 nM
- EC50 [5]: > 10000 nM
- EC50 [6]: > 10000 nM

Structure (SMILES): COc1ccc(C2=Nn3c(nnc3-c3ccc(F)cc3)SC2)cc1 [Example S2]
- EC50 [1]: 1660 nM
- EC50 [2]: 271 nM
- EC50 [3]: 700 nM
- EC50 [4]: 546 nM
- EC50 [5]: 569 nM
- EC50 [6]: 339 nM

Structure (SMILES): COc1cc(-c2nnc3n2N=C(c2ccc(Br)cc2)CS3)cc(OC)c1OC [Example U1, 3-(3,4,5-Trimethoxyphenyl)-6-(4-bromophenyl)-7H-[1,2,4]triazolo[3,4-b][1,3,4]thiadiazine]
- EC50 [1]: 145 nM
- EC50 [2]: 42 nM
- EC50 [3]: 65 nM
- EC50 [4]: 40 nM
- EC50 [5]: 65 nM
- EC50 [6]: 39 nM

Structure (SMILES): COc1ccc(-c2nnc3n2N=C(c2ccc(N)cc2)CS3)cc1OC [Example 29, 6-(4-Aminophenyl)-3-(3,4-dimethoxyphenyl)-7H-[1,2,4]triazolo[3,4-b][1,3,4]thiadiazine]
- EC50 [1]: 4720 nM
- EC50 [2]: 2540 nM
- EC50 [3]: 5280 nM
- EC50 [6]: 545 nM

Structure (SMILES): COc1ccccc1-c1nnc2n1N=C(c1ccc(OCCN(C)C)cc1)CS2 [Example 9, 3-(2-Methoxyphenyl)-6-(4-(2-dimethylaminoethoxy)phenyl)-7H-[1,2,4]triazolo[3,4-b][1,3,4]thiadiazine]
- EC50 [4]: 2560 nM
- EC50 [5]: 3370 nM
- EC50 [6]: 2650 nM

Structure (SMILES): COc1ccc(-c2nnc3n2N=C(c2ccc(NC(C)=O)cc2)CS3)cc1OC [Example 32, 6-(4-Acetamidophenyl)-3-(3,4-dimethoxyphenyl)-7H-[1,2,4]triazolo[3,4-b][1,3,4]thiadiazine]
- EC50 [4]: > 10000 nM
- EC50 [5]: > 10000 nM
- EC50 [6]: 4860 nM

Structure (SMILES): c1ccc(-c2nnc3n2N=C(c2ccc4c(c2)OCO4)CS3)cc1 [Example P1, 3-Phenyl-6-(3,4-methylenedioxyphenyl)-7H-[1,2,4]triazolo[3,4-b][1,3,4]thiadiazine]
- EC50 [1]: 669 nM
- EC50 [2]: 2640 nM
- EC50 [3]: > 10000 nM
- EC50 [5]: > 1000 nM
- EC50 [6]: 628 nM

Structure (SMILES): CCOc1ccc(C2=Nn3c(nnc3-c3cccc(C)c3)SC2)cc1 [Example O2, 3-(3-Methylphenyl)-6-(4-ethoxyphenyl)-7H-[1,2,4]triazolo[3,4-b][1,3,4]thiadiazine]
- EC50 [1]: 1420 nM
- EC50 [2]: 433 nM
- EC50 [3]: 665 nM
- EC50 [4]: 635 nM
- EC50 [5]: 641 nM
- EC50 [6]: 597 nM

Structure (SMILES): COc1ccc(-c2nnc3n2N=C(c2ccc4[nH]c(=O)oc4c2)CS3)c(OC)c1 [Example 33, 6-(2,3-Dihydro-2-oxobenzo[d]oxazol-6-yl)-3-(2,4-dimethoxyphenyl)-7H-[1,2,4]triazolo[3,4-b][1,3,4]thiadiazine]
- EC50 [4]: 2730 nM
- EC50 [5]: 2400 nM
- EC50 [6]: 2680 nM

Structure (SMILES): Fc1ccccc1-c1nnc2n1N=C(c1ccc3c(c1)OCO3)CS2 [Example Q1, 3-(2-Fluorophenyl)-6-(3,4-methylenedioxyphenyl)-7H-[1,2,4]triazolo[3,4-b][1,3,4]thiadiazine]
- EC50 [1]: 277 nM
- EC50 [2]: 257 nM
- EC50 [3]: 551 nM
- EC50 [4]: 250 nM
- EC50 [5]: 484 nM
- EC50 [6]: 264 nM

Structure (SMILES): CCc1nnc2n1N=C(c1ccc(OC)cc1)CS2 [Example J2, 3-Ethyl-6-(4-methoxyphenyl)-7H-[1,2,4]triazolo[3,4-b][1,3,4]thiadiazine]
- EC50 [1]: 5630 nM
- EC50 [2]: 5080 nM
- EC50 [3]: > 10000 nM
- EC50 [4]: > 10000 nM
- EC50 [5]: 5560 nM
- EC50 [6]: 5420 nM

Structure (SMILES): CCN(CC)c1ccc(C2=Nn3c(nnc3-c3ccc(OC)c(OC)c3)SC2)cc1 [Example 22, 6-(4-Diethylaminophenyl)-3-(3,4-dimethoxyphenyl)-7H-[1,2,4]triazolo[3,4-b][1,3,4]thiadiazine]
- EC50 [1]: 534 nM
- EC50 [2]: 122 nM
- EC50 [3]: 188 nM
- EC50 [4]: 214 nM
- EC50 [5]: 270 nM
- EC50 [6]: 258 nM

Structure (SMILES): COc1cc(-c2nnc3n2N=C(c2ccc4ccccc4c2)CS3)cc(OC)c1OC [Example Y1, 3-(3,4,5-Trimethoxyphenyl)-6-(2-naphthyl)-7H-[1,2,4]triazolo[3,4-b][1,3,4]thiadiazine]
- EC50 [1]: 556 nM
- EC50 [2]: 81 nM
- EC50 [3]: 119 nM
- EC50 [4]: 139 nM
- EC50 [5]: 127 nM
- EC50 [6]: 99 nM

Structure (SMILES): CCOc1ccc(C2=Nn3c(nnc3-c3ccc(F)cc3)SC2)cc1 [Example P2, 3-(4-Fluorophenyl)-6-(4-ethoxyphenyl)-7H-[1,2,4]triazolo[3,4-b][1,3,4]thiadiazine]
- EC50 [1]: 2160 nM
- EC50 [2]: 473 nM
- EC50 [3]: 1470 nM
- EC50 [4]: 880 nM
- EC50 [5]: 901 nM
- EC50 [6]: 660 nM

Structure (SMILES): COc1ccccc1-c1nnc2n1N=C(c1ccc([N+](=O)[O-])cc1)CS2 [Example X2]
- EC50 [4]: 2580 nM
- EC50 [5]: 4860 nM
- EC50 [6]: 2580 nM

Structure (SMILES): COc1ccccc1-c1nnc2n1N=C(c1ccc(N)c(N)c1)CS2 [Example 60, 6-(3,4-Diaminophenyl)-3-(2-methoxyphenyl)-7H-[1,2,4]triazolo[3,4-b][1,3,4]thiadiazine]
- EC50 [1]: > 10000 nM
- EC50 [2]: > 10000 nM
- EC50 [3]: > 10000 nM
- EC50 [4]: > 10000 nM

Structure (SMILES): COc1ccccc1-c1nnc2n1N=C(c1ccc([N+](=O)[O-])c(OC)c1)CS2 [Example 45, 6-(3-Methoxy-4-nitrophenyl)-3-(2-methoxyphenyl)-7H-[1,2,4]triazolo[3,4-b][1,3,4]thiadiazine]
- EC50 [1]: > 10000 nM
- EC50 [2]: > 10000 nM
- EC50 [3]: > 10000 nM
- EC50 [4]: > 10000 nM
